Bounds are passed on as bounds.

One may read the IC50 as the point on the concentration scale where inhibition reaches its midpoint. What is called logP is a log measure of how a compound divides between an organic and an aqueous phase. As usually defined, the logD is the decadic logarithm of the distribution of all forms, ionised or not, between an organic phase and buffer at a given pH. One may read the half-life as the time in which the quantity being followed falls by half.

Data set [1] deals with T1, Histone deacetylase 1 (Homo sapiens, UniProt Q13547). Description: Inhibition of full length 6His-tagged HDAC1 (unknown origin) expressed in baculovirus infected Sf9 insect cells incubated for 17 hrs in presence of FAM-labeled acetylated peptide substrate by fluorescence assay.
In data set [2] the target is T2, Protein deacetylase HDAC6 (Homo sapiens, UniProt Q9UBN7).
T2 sequence (Q9UBN7 whole entry): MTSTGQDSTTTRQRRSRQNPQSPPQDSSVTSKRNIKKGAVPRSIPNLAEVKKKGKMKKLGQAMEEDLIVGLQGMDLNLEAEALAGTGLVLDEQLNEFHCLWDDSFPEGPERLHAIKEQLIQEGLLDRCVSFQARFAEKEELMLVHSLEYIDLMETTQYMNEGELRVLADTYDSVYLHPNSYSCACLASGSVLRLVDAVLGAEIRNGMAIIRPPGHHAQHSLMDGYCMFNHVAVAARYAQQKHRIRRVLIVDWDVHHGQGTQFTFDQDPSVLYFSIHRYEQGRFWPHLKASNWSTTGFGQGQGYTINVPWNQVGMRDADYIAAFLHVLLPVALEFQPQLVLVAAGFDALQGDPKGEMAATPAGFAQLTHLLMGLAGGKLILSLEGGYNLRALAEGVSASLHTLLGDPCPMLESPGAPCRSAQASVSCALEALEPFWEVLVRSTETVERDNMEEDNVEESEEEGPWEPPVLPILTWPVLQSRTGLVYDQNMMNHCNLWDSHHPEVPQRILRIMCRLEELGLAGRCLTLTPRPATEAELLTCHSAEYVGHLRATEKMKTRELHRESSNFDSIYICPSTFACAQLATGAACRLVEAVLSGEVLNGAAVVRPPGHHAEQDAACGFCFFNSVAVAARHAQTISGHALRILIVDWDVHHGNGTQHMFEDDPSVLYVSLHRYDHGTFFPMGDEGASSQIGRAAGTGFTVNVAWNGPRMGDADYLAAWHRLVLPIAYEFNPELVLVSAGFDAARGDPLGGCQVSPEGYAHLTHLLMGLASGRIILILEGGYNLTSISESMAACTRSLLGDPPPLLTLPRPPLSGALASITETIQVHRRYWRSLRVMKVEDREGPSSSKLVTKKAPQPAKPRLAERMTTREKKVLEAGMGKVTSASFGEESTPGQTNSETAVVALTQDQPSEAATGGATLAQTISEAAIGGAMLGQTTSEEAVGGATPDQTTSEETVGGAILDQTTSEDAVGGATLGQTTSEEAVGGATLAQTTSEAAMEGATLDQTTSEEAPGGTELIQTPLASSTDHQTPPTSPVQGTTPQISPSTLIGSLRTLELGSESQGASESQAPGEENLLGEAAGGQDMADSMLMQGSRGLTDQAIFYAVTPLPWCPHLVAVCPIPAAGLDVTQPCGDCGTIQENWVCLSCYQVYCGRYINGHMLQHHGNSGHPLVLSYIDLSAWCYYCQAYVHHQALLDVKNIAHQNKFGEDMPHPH
Description: Inhibition of full length 6His-tagged HDAC6 (unknown origin) expressed in baculovirus infected Sf9 insect cells incubated for 17 hrs in presence of FAM-labeled acetylated peptide substrate by fluorescence assay.

For data set [3], the target named is T3, Histone deacetylase 2 (Homo sapiens, UniProt Q92769). Description: Inhibition of full length 6His-tagged HDAC2 (unknown origin) expressed in baculovirus infected Sf9 insect cells incubated for 17 hrs in presence of FAM-labeled acetylated peptide substrate by fluorescence assay.
The target of data set [4] is T4, Polyamine deacetylase HDAC10 (Homo sapiens, UniProt Q969S8).
T4 sequence (Q969S8 whole entry): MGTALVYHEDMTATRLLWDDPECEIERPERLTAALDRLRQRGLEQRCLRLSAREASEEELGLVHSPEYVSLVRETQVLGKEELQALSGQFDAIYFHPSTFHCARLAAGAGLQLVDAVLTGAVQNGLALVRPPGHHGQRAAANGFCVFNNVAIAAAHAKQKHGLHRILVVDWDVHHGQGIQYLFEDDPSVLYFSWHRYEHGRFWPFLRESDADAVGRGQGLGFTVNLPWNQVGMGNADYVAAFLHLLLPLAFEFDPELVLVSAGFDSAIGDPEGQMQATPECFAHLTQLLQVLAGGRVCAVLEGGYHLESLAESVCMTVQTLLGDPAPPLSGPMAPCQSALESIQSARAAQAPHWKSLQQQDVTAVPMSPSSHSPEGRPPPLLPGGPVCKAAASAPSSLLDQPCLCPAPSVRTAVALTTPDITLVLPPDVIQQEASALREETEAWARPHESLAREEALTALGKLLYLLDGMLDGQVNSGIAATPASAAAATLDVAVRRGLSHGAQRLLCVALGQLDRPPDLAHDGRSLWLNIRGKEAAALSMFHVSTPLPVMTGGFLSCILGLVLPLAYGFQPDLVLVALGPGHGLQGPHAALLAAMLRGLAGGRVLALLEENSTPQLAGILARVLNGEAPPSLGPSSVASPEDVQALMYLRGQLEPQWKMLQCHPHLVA
Description: Inhibition of C-terminal 6His-tagged HDAC10 (unknown origin) (632 to 669 residues) expressed in baculovirus infected Sf9 insect cells incubated for 17 hrs in presence of FAM-labeled acetylated peptide substrate by fluorescence assay.

The target in a further data set is T5, Histone deacetylase 8 (Homo sapiens, UniProt Q9BY41).
T5 sequence (Q9BY41 whole entry): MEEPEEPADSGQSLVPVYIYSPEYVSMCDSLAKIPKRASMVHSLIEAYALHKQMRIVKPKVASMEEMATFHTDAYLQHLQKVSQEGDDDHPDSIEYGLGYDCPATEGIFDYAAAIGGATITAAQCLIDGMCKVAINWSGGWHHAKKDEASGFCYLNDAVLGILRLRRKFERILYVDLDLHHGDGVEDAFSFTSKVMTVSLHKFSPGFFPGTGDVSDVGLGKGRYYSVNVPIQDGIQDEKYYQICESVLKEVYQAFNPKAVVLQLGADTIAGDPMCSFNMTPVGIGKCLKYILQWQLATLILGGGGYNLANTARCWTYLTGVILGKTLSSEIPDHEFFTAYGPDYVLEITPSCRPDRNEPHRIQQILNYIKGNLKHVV
Briefly: Inhibition of full length 6His-tagged HDAC8 (unknown origin) expressed in baculovirus infected Sf9 insect cells incubated for 17 hrs in presence of FAM-labeled acetylated peptide substrate by fluorescence assay.

For data set [5], the target named is T3, Histone deacetylase 2. Description: Inhibition of HDAC2 (unknown origin).
Data set [6] addresses T2, Protein deacetylase HDAC6. Description: Inhibition of HDAC6 (unknown origin).
For data set [7], the target named is T4, Polyamine deacetylase HDAC10. Description: Inhibition of HDAC10 (unknown origin).
The target of another data set is Histone deacetylase 4 (Homo sapiens, UniProt P56524). Briefly: Inhibition of HDAC4 (unknown origin).
A further data set deals with T6, Histone deacetylase 11 (Homo sapiens, UniProt Q96DB2).
T6 sequence (Q96DB2 whole entry): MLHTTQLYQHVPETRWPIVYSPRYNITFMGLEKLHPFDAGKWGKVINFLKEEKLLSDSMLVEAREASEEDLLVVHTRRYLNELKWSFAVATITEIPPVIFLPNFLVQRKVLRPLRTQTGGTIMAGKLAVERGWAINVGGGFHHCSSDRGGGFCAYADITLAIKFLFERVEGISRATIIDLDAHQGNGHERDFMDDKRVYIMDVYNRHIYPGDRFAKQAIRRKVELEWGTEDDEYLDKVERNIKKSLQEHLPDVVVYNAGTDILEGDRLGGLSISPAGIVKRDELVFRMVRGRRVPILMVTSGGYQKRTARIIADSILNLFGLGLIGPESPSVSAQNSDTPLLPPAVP
Description: Inhibition of HDAC11 (unknown origin).

Data set [8] addresses T1, Histone deacetylase 1. Briefly: Inhibition of HDAC1 (unknown origin).
A further data set addresses Histone deacetylase 3 (Homo sapiens, UniProt O15379). Briefly: Inhibition of HDAC3 (unknown origin).
For data set [9], the system named is Mus musculus. Briefly: Decrease in alcohol intake in C57BL/6J mouse at 50 mg/kg, ip relative to control. The class given is functional. On the set-up: scale not given: the % may be the effect or the level left.
For data set [10], the system named is Rattus norvegicus. Description: Decrease in alcohol intake in rat assessed as operant alcohol self-administration at 50 mg/kg, ip administered once in a week relative to control. The class given is functional. On the set-up: scale not given: the % may be the effect or the level left.
Data set [11] concerns Mus musculus. Description: Decrease in alcohol intake in C57BL/6J mouse at 100 mg/kg, ip relative to control. On the set-up: scale not given: the % may be the effect or the level left. The data set is classed as functional.
Data set [12] can be described thus: Lipophilicity, log P of compound by LC-MS/MS analysis. The data set is classed as physicochemical. The following applies: octanol/water.
The nature of data set [13]: Drug uptake in baboon hippocampus after 20 mins by LC-MS/MS analysis. The class given is ADME, tissue-based. The following applies: papio anubis, in vivo.
Data set [14] concerns Rattus norvegicus. Description: Decrease in alcohol intake in rat assessed as ethanol intake at 2 mg/kg, ip administered daily during last 3 days of 10 day period of two-bottel choice paradigm (reference value: 7 g/kg). The class given is functional.
Data set [15] relates to Rattus norvegicus. Briefly: Decrease in alcohol intake in rat model of voluntary heavy drinking assessed as decrease in motivation to consume alcohol at 500 uM, icv administered twice relative to control. The class given is functional. Further details: scale not given: the % may be the effect or the level left.
In data set [16] the test system is Rattus norvegicus. Description: Decrease in alcohol intake in rat model of voluntary heavy drinking assessed as decrease in relapse phenomenon after period of abstinence at 500 uM, icv administered twice relative to control. The data set is classed as functional. Further details: scale not given: the % may be the effect or the level left.
Data set [17] can be described thus: Lipophilicity, log P of the compound at pH 7.4. The class given is physicochemical. The conditions noted are these: buffer.
Data set [18] relates to Brain. Briefly: Drug uptake in iv dosed baboon brain after 90 mins by PET imaging method relative to control. The following applies: papio anubis, in vivo, 1.5 h. The class given is ADME, organism-based.
The subject of data set [19] is Rattus norvegicus. Description: Decrease in alcohol intake in rat model of voluntary heavy drinking assessed as decrease in operant alcohol self-administration at 500 uM, icv administered twice relative to control. On the set-up: scale not given: the % may be the effect or the level left. The class given is functional.
The nature of data set [20]: Lipophilicity, log D of the compound at pH 7.4. The data set is classed as physicochemical. The conditions noted are these: buffer.
Data set [21] in a line: Half life in human at 6 mg/m2, po. The data set is classed as ADME.
Data set [22] in a line: Half life in human at 2 mg/m2 dosed twice a week. The data set is classed as ADME, organism-based. The conditions noted are these: in vivo.
Data set [23] concerns Brain. Description: Drug uptake in iv dosed rat brain after 90 mins by PET imaging method relative to control. The data set is classed as ADME, organism-based. The conditions noted are these: in vivo, 1.5 h.

T3 sequence (Q92769 whole entry): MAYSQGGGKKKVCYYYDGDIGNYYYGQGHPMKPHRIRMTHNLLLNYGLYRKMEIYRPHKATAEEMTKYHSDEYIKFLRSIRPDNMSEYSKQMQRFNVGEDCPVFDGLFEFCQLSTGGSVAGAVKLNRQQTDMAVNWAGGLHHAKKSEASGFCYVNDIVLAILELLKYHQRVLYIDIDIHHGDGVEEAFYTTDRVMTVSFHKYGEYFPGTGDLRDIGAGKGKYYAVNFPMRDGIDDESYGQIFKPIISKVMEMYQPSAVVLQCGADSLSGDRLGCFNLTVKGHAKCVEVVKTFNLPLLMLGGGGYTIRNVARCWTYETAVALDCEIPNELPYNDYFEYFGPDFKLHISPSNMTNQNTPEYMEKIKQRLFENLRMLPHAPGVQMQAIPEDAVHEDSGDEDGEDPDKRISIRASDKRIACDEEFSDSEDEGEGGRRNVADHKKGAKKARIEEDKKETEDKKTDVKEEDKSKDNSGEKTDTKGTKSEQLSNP
T1 sequence (Q13547 whole entry): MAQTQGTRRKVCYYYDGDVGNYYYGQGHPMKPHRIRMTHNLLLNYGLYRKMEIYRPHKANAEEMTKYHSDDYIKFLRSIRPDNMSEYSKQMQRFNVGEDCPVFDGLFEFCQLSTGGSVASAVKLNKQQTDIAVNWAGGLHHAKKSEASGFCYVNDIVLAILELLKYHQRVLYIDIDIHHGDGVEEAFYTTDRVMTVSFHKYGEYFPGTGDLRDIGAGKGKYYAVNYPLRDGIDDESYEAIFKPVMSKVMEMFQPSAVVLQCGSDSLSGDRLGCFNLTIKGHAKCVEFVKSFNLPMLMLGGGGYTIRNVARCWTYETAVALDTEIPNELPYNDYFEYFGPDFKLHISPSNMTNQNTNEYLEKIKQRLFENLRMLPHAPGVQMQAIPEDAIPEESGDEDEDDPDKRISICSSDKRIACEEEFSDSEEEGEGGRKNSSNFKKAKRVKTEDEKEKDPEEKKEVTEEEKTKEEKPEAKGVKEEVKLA
Chain of Histone deacetylase 3 (O15379 whole entry): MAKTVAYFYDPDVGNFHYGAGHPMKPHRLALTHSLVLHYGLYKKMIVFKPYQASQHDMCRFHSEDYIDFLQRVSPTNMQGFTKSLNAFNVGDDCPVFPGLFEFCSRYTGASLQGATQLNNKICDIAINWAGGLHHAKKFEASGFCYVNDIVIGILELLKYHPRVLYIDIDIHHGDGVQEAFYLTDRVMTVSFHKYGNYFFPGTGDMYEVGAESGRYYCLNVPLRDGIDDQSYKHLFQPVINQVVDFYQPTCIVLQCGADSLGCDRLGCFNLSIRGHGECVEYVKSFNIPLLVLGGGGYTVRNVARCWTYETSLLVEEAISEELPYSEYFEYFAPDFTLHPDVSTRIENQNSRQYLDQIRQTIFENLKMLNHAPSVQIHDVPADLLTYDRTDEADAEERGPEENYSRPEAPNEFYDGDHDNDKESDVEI
Chain of Histone deacetylase 4 (P56524 whole entry): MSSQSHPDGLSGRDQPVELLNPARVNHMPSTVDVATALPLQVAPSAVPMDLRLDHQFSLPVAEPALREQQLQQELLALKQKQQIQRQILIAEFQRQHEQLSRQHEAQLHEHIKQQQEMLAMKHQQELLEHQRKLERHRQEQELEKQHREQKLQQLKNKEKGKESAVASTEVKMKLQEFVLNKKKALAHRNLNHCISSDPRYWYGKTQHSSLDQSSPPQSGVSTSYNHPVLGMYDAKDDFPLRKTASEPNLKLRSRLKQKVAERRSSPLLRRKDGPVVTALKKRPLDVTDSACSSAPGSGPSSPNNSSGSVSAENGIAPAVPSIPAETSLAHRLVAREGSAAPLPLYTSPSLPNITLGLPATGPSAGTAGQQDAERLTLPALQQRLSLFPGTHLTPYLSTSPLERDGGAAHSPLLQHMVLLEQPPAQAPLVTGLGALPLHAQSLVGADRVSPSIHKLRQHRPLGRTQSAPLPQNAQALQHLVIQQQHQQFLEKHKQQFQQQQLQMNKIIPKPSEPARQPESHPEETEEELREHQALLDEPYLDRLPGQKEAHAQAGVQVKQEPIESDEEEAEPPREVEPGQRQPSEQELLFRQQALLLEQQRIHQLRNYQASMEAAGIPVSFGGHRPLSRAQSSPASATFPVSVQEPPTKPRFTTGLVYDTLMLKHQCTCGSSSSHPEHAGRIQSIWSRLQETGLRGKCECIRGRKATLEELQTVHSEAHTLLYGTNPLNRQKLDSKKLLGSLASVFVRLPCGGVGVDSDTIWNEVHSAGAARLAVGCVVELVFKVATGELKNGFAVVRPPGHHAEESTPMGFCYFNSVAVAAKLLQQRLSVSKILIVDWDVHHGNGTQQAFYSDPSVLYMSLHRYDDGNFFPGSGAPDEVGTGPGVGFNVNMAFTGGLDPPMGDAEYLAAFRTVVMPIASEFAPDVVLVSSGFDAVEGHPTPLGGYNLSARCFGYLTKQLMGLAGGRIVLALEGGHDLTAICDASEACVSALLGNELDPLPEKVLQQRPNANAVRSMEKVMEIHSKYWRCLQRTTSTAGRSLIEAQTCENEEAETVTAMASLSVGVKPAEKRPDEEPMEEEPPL

Turning to `Nc1ccccc1NC(=O)CCCCCCC(=O)Nc1cccc(-c2cn(-c3ccccc3)nn2)c1`, the IC50 (at Histone deacetylase 1 [1]; in [2]; at Histone deacetylase 2 [3]; in data set [4]; on Histone deacetylase 8) was over 30 µM each time.

Consider `COc1ccc(/C=C/C(=O)NO)c(-c2ccc(-c3ccccc3)cc2)c1`, for which the concentration for half-maximal inhibition (IC50) was over 20 µM against Histone deacetylase 2 [5]; over 20 µM in [6]; over 20 µM in data set [7]; over 20 µM against Histone deacetylase 4; over 20 µM against Histone deacetylase 11; 3 µM against Histone deacetylase 1 [8]. Further, the IC50 against Histone deacetylase 3 came out at 3 µM.

Regarding `O=C(CCCCCCC(=O)Nc1ccccc1)NO` [VORINOSTAT], the Activity with Mus musculus [9] came out at 40%; in the data set with Rattus norvegicus [10] it was 20%; with Mus musculus [11], 40%.

In turn, `COc1ccc(Cn2ccc3ccc(C(=O)NO)cc32)cc1` showed a logP in [12] of 2.61. The same compound yielded a Drug uptake in data set [13] of 30%.

With `CC(/C=C/C(=O)NO)=C\[C@@H](C)C(=O)c1ccc(N(C)C)cc1` [TRICHOSTATIN], the Activity in the data set with Rattus norvegicus [14] was under 1 g/kg.

For `Nc1ccccc1NC(=O)c1ccc(CNC(=O)OCc2cccnc2)cc1` [ENTINOSTAT], the Activity in the data set on Rattus norvegicus [15] is reported as 25%; in the data set with Rattus norvegicus [16], 50%; with Rattus norvegicus [19], 75%. Further, the logD was 2.5 in [17] and 1.8 in data set [20]. Further, the Drug uptake with Brain [18] was under 0.001%; in the data set on Brain [23] it was under 0.1%. Further, the half-life is 33.9 h in data set [21] and 52 to 150 h in [22].

Source of the values: ChEMBL document CHEMBL4033774, “Class I HDAC Inhibitors: Potential New Epigenetic Therapeutics for Alcohol Use Disorder (AUD)” (J Med Chem, 2018).
